Measurements published in US20070123586A1, “Nitroso derivatives of diphenylamine” (priority 2003, published 2007).

What was measured:
[1] = Spontaneous nitric oxide release: nitrites+nitrates titrated by Griess colorimetry with nitrate reductase; details: test product final concentration 150 μM, incubated four hours at 37° C., pH 7.5 PBS buffer, Griess reagent, OD 540 nm
Method: A solution of a compound of the invention of the formula I spontaneously releases nitric oxide. The nitrite ions resulting therefrom are titrated by colorimetry by means of a specific reagent (Griess). To take account of any release of nitrate ions in addition to the nitrite ions, bacterial nitrate reductase is added to the reaction medium, which makes it possible to reduce the nitrate ions formed.
The reactions and measurements are performed in transparent 96-well plates. The test products are dissolved extemporaneously at a concentration of 3 mM in dimethyl sulfoxide. 95 μl of a reagent comprising nitrate reductase (0.18 U/ml in 0.100 mM pH 7.5, PBS buffer, β-NADPH 210 μM, FAD 5 μM) and 5 μl of the solution of the test product (final concentration of 150 μM) are then introduced into each well. After stirring, the mixture is incubated for four hours at 37° C. The reaction is then quenched by addition of 100 μl of the Griess reagent (Sigma G4410). This reagent is left to act for five minutes at room temperature, and the optical density is then read at 540 nm. This value is proportional to the concentration of nitrites+nitrates in the medium. A calibration range is made for each plate using NaNO2.
The results are expressed in μmol/l (μM) of nitrites+nitrates released in Table I for some of the compounds of the formula I illustrated below.

Human LDLs = assay: Antioxidant effect: cupric ion-induced oxidation of human LDL (fluorescence); assay type: biochemical; details: human LDL 120 μg/ml, CuCl2, 37° C., fluorescence difference 2 h vs 24 h, from three concentrations
Method: Human LDLs placed in aqueous solution in the presence of cupric ions, become spontaneously oxidized on their protein component, apolipoprotein-B. This oxidation makes the particle fluorescent, which is exploited to measure a pharmacological effect.
The reactions and measurements are performed in black 96-well plates. 10 μl of a solution of the test product dissolved in dimethyl sulfoxide are first mixed with 170 μl of a solution of human LDL at a concentration of 120 μg/ml and 20 μl of 100 μM CuCl2. After stirring, the mixture is incubated for 2 hours at 37° C., and a first fluorescence reading is taken (excitation at 360 nm, reading at 460 nm). The mixture is then incubated for a further 22 hours, to take a second reading under the same conditions. The difference is proportionately smaller the greater the antioxidant power of the test product. Probucol is used as reference product at a concentration of 10 μM.
The concentrations that inhibit 50% (IC50) of the oxidation are prepared from three concentrations of the test product. They are given in Table II below for some of the compounds of the formula I given as examples below.

fatty Zucker rats = assay: Hypotriglyceridaemiant activity in fatty Zucker rats; assay type: in vivo, rat; details: 9-week-old male Zucker rats, 200 mg/kg/day p.o. for eight days, after fasting four hours
Method: The compounds were tested on fatty Zucker rats (Zucker L. M. et al., 1961, Fatty a new mutation in the rat, J. Hered., 52: 275-278). This animal is hyperphagic, obese and hyperinsulinaemic. It develops resistance to insulin, it is hyperlipidaemic, and has a large hypertriglyceridaemia.
9-week-old male Zucker rats were treated for eight days with the compounds of Example 2 and Example 5 at a dose of 200 mg/kg/day p.o. After fasting for four hours, a blood sample is taken to recover the plasma. […] The compound of Example 5 has a 21% […] effect (p<0.05) and reduces insulin by 45% (p<0.05).

Row | Compound | Nitrites—Nitrates released [1] | melting point | IC50 (Human LDLs) | reduction in triglycerides (plasma) (fatty Zucker rats) | reduction of insulinaemia (plasma insulin) (fatty Zucker rats)
1 | CS(=O)(=O)c1ccc(N(N=O)c2ccc(C(=O)O)cc2)cc1 [Example 15] | 88 µM |  |  |  | 
2 | N#Cc1ccc(N(N=O)c2ccc(C(=O)O)cc2)cc1 [Example 14] | 69 µM |  |  |  | 
3 | COc1ccc(N(N=O)c2ccc(C#N)cc2)cc1 [Example 6, 4-[(4-Methoxyphenyl)(nitroso)amino]benzonitrile] | 43 µM | 88 to 90 °C |  |  | 
4 | COc1ccc(N(N=O)c2ccc(CO)cc2)cc1 [Example 8, {4-[(4-Methoxyphenyl)(nitroso)amino]phenyl}methanol] | 88 µM |  | 18.4 µM |  | 
5 | O=NN(c1ccc(C(=O)O)cc1)c1ccc(C(F)(F)F)cc1 [Example 5, 4-{Nitroso[4-(trifluoromethyl)phenyl]amino}benzoic acid] | 108 µM |  |  | 21% | 45%
6 | O=NN(c1ccc(C(=O)O)cc1)c1ccc([N+](=O)[O-])cc1 [Example 13] | 86 µM |  | 4.6 µM |  | 
7 | O=NN(c1ccc(C(=O)O)cc1)c1ccc(C(=O)O)cc1 [Example 30, 4,4′-(Nitrosoimino)dibenzoic acid] | 58 µM |  |  |  | 
8 | CCOC(=O)c1ccc(N(N=O)c2ccc(S(C)(=O)=O)cc2)cc1 [Example 12] | 38 µM |  |  |  | 
9 | CCOC(=O)c1ccc(N(N=O)c2ccc(C#N)cc2)cc1 [Example 10] | 76 µM |  | 6.2 µM |  | 
10 | COc1ccc(N(N=O)c2ccc(C(C)=O)cc2)cc1 [Example 18] | 81 µM |  |  |  | 
11 | O=NN(c1ccc(F)cc1)c1ccc(C(=O)O)cc1 [Example 19] | 79 µM |  |  |  | 
12 | COc1ccc(N(N=O)c2ccc(CC(=O)O)cc2)cc1 [Example 17] | 58 µM |  | 11.6 µM |  | 
13 | COc1ccc(N(N=O)c2ccc(C(=O)O)cc2)cc1 [Example 2, 4-[(4-Methoxyphenyl)(nitroso)amino]benzoic acid] | 87 µM | 169 to 171 °C | 17 µM | 58% | 47%
14 | COc1ccc(N(N=O)c2ccc(C(N)=O)cc2)cc1 [Example 42] | 79 µM |  |  |  | 
